# Test results as given in patent US20250161299A1, “ORAL PCLX-001 IN THE TREATMENT OF HUMAN CANCER” (PACYLEX PHARMACEUTICALS INC., priority 2022, published 2025).
# Where two headings read alike, the source gives them in different places.
# Assay: Phase I trial of oral PCLX-001: plasma pharmacokinetics, noncompartmental analysis (Phoenix WinNonlin 8.3)
# Type: in vivo, human
# Conditions: human, plasma
# Excerpt: The clinical trial is entitled “Phase I Trial of PCLX-001 in B-cell Non-Hodgkin Lymphoma and Advanced Solid Malignancies” and registered at clinicaltrials.gov as NCT04836195. It is a phase I dose-escalation study of oral PCLX-001, conducted in a multicenter, non-randomized, open-label, non-controlled design. The study is comprised of two parts: Part A (single-agent dose escalation) and Part B (single-agent expansion cohorts).
# Patients are to receive daily oral PCLX-001 on 28-day cycles, beginning with a starting dose of 20 mg.
# […] After dosing, the blood samples (volumes 3 mL) were serially collected into heparinized tubes from a right forearm butterfly cannula. All blood fluid specimens were frozen and later assayed using a validated UHPLC-MS detection method.
# Noncompartmental pharmacokinetic analysis was performed using Phoenix WinNonlin 8.3 using trapezoidal rule and linear up log down methodology. WinNonlin was allowed to pick optimal terminal phases.
# Nonparametric superposition was performed using Phoenix WinNonlin Nonparametric Superposition to predict steady state data based upon Day 1 data for each patient. It utilized the 8- and 24-hour time points for estimation of terminal phase for the purposes of this exercise. We simulated 20 mg daily oral dosing and simulations were conducted out to steady state. Results are show in FIGS. 5, 6, and 7.
# In the non-compartmental analysis, Phoenix WinNonlin 8.3 trapezoidal rule was used, with linear up log down method. This allowed WinNonlin to pick optimal terminal phase (WinNonlin will accept Rsq adjusted to >0.7). Additional analysis to assess adequate fie included visual inspection of data, and AUCextrap should be <15%.
# Phoenix WinNonlin 8.3 trapezoidal rule. Used linear up log down method. Allowed WinNonlin to pick optimal terminal phase (WinNonlin will accept Rsq adjusted >0.7).
# Other analysis to assess adequate fit. Visual inspection of data. AUCextrap should be <15%.
# [1] = oral, 140 mg, Table 4, not on Pantoprazole, 140 mg, N 1, Day 1
# [2] = oral, 140 mg, Table 5, Mean (CV), on Pantoprazole, 140 mg, N 2, Day 1
# [3] = oral, 140 mg, Table 5, Mean (CV), on Pantoprazole, 140 mg, N 2, Day 15
# [4] = po, 20 mg, Table 1A, Patient 115-002-001 (Patient 1), Day 1, 20 mg oral daily
# [5] = po, 20 mg, Table 1A, Patient 115-002-001 (Patient 1), Day 15, 20 mg oral daily
# [6] = po, 20 mg, Table 1A, Patient 115-002-002 (Patient 2), Day 15, 20 mg oral daily
# [7] = po, 20 mg, Table 1A, Patient 115-002-004 (Patient 3), Day 1, 20 mg oral daily
# [8] = po, 20 mg, Table 1A, Patient 115-002-004 (Patient 3), Day 15, 20 mg oral daily
smiles,measurement,setting,value
"Cc1c(NS(=O)(=O)c2c(Cl)cc(-c3ccnc(N4CCNCC4)c3)cc2Cl)c(CC(C)C)nn1C [PCLX-001, 2,6-dichloro-N-(3-isobutyl-1,5-dimethyl-1H-pyrazol-4-yl)-4-(2-(piperazin-1-yl)pyridin-4-yl)benzene sulfonamide]",Cmax,"oral, 70 mg, Table 4, not on Pantoprazole, 70 mg, N 1, Day 15",629 ng/mL
same,AUC(0-t),"oral, 70 mg, Table 4, not on Pantoprazole, 70 mg, N 1, Day 15, read-out: AUClast",7300 ng·h/mL
same,Tmax,"oral, 70 mg, Table 4, not on Pantoprazole, 70 mg, N 1, Day 15, read-out: Tmax",4 h
same,Cmax,"oral, 70 mg, Table 5, Mean (CV), on Pantoprazole, 70 mg, N 2, Day 1",283 ng/mL
same,AUC(0-t),"oral, 70 mg, Table 5, Mean (CV), on Pantoprazole, 70 mg, N 2, Day 1, read-out: AUClast",3260 ng·h/mL
same,Cmax,"oral, 70 mg, Table 5, Mean (CV), on Pantoprazole, 70 mg, N 2, Day 15",386 ng/mL
same,AUC(0-t),"oral, 70 mg, Table 5, Mean (CV), on Pantoprazole, 70 mg, N 2, Day 15, read-out: AUClast",5760 ng·h/mL
same,Tmax,"oral, 70 mg, Table 5, median (min, max), on Pantoprazole, 70 mg, N 2, Day 1, read-out: Tmax",6 h
same,Tmax,"oral, 70 mg, Table 5, median (min, max), on Pantoprazole, 70 mg, N 2, Day 15, read-out: Tmax",6 h
same,Cmax,"oral, 100 mg, Table 4, Mean (CV), not on Pantoprazole, 100 mg, N 2, Day 15",1340 ng/mL
same,Cmax,"oral, 100 mg, Table 4, Mean (CV), not on Pantoprazole, 100 mg, N 4, Day 1",1770 ng/mL
same,AUC(0-t),"oral, 100 mg, Table 4, Mean, not on Pantoprazole, 100 mg, N 2, Day 15, read-out: AUClast",17400 ng·h/mL
same,AUC(0-inf),"oral, 100 mg, Table 4, Mean, not on Pantoprazole, 100 mg, N 4, Day 1",18000 ng·h/mL
same,AUC(0-t),"oral, 100 mg, Table 4, Mean, not on Pantoprazole, 100 mg, N 4, Day 1, read-out: AUClast",15100 ng·h/mL
same,half-life,"oral, 100 mg, Table 4, Mean, not on Pantoprazole, 100 mg, N 4, Day 1, read-out: t½ (converted)",7.26 h
same,Tmax,"oral, 100 mg, Table 4, median (min, max), not on Pantoprazole, 100 mg, N 2, Day 15, read-out: Tmax",3 h
same,Tmax,"oral, 100 mg, Table 4, median (min, max), not on Pantoprazole, 100 mg, N 4, Day 1, read-out: Tmax",2 h
same,AUC(0-inf),"oral, 100 mg, Table 4, not on Pantoprazole, 100 mg, N 2, Day 15, value from N = 1 patient",19400 ng·h/mL
same,half-life,"oral, 100 mg, Table 4, not on Pantoprazole, 100 mg, N 2, Day 15, value from N = 1 patient, read-out: t½ (converted)",7.56 h
same,Cmax,"oral, 140 mg, Table 4, Mean (CV), not on Pantoprazole, 140 mg, N 1, Day 15",903 ng/mL
same,AUC(0-inf),"oral, 140 mg, Table 4, Mean, not on Pantoprazole, 140 mg, N 1, Day 15",10700 ng·h/mL
same,AUC(0-t),"oral, 140 mg, Table 4, Mean, not on Pantoprazole, 140 mg, N 1, Day 15, read-out: AUClast",7680 ng·h/mL
same,Tmax,"oral, 140 mg, Table 4, median (min, max), not on Pantoprazole, 140 mg, N 1, Day 15, read-out: Tmax",1.5 h
same,AUC(0-inf),[1],24200 ng·h/mL
same,Cmax,[1],2710 ng/mL
same,AUC(0-t),"oral, 140 mg, Table 4, not on Pantoprazole, 140 mg, N 1, Day 1, read-out: AUClast",21200 ng·h/mL
same,Tmax,"oral, 140 mg, Table 4, not on Pantoprazole, 140 mg, N 1, Day 1, read-out: Tmax",0.5 h
same,half-life,"oral, 140 mg, Table 4, not on Pantoprazole, 140 mg, N 1, Day 1, read-out: t½ (converted)",7.91 h
same,half-life,"oral, 140 mg, Table 4, not on Pantoprazole, 140 mg, N 1, Day 15, read-out: t½ (converted)",13.8 h
same,AUC(0-inf),[2],7830 ng·h/mL
same,Cmax,[2],1300 ng/mL
same,AUC(0-t),"oral, 140 mg, Table 5, Mean (CV), on Pantoprazole, 140 mg, N 2, Day 1, read-out: AUClast",7260 ng·h/mL
same,AUC(0-inf),[3],10700 ng·h/mL
same,Cmax,[3],903 ng/mL
same,AUC(0-t),"oral, 140 mg, Table 5, Mean (CV), on Pantoprazole, 140 mg, N 2, Day 15, read-out: AUClast",7680 ng·h/mL
same,half-life,"oral, 140 mg, Table 5, Mean, on Pantoprazole, 140 mg, N 2, Day 1, read-out: t½ (converted)",6.71 h
same,half-life,"oral, 140 mg, Table 5, Mean, on Pantoprazole, 140 mg, N 2, Day 15, read-out: t½ (converted)",13.8 h
same,Tmax,"oral, 140 mg, Table 5, median (min, max), on Pantoprazole, 140 mg, N 2, Day 1, read-out: Tmax",1 h
same,Tmax,"oral, 140 mg, Table 5, median (min, max), on Pantoprazole, 140 mg, N 2, Day 15, read-out: Tmax",1.5 h
same,Tmax,"oral, Example 2, all dose groups, Days 1 and 15, read-out: Tmax, median (range)",2 h
same,half-life,"oral, Example 2, range across the dose groups (20 to 140 mg), read-out: t1/2",5.02 to 17.4 h
same,AUC(0-inf),[4],2030 ng·h/mL
same,Cmax,[4],353 ng/mL
same,AUC(0-t),"po, 20 mg, Table 1A, Patient 115-002-001 (Patient 1), Day 1, 20 mg oral daily, read-out: AUClast or AUCtau",1710 ng·h/mL
same,half-life,"po, 20 mg, Table 1A, Patient 115-002-001 (Patient 1), Day 1, 20 mg oral daily, read-out: Half-life (converted)",8.54 h
same,Tmax,"po, 20 mg, Table 1A, Patient 115-002-001 (Patient 1), Day 1, 20 mg oral daily, read-out: Tmax",1 h
same,AUC(0-inf),[5],3500 ng·h/mL
same,Cmax,[5],479 ng/mL
same,AUC(0-t),"po, 20 mg, Table 1A, Patient 115-002-001 (Patient 1), Day 15, 20 mg oral daily, read-out: AUClast or AUCtau",2730 ng·h/mL
same,half-life,"po, 20 mg, Table 1A, Patient 115-002-001 (Patient 1), Day 15, 20 mg oral daily, read-out: Half-life (converted)",10.3 h
same,Tmax,"po, 20 mg, Table 1A, Patient 115-002-001 (Patient 1), Day 15, 20 mg oral daily, read-out: Tmax",1 h
same,Cmax,"po, 20 mg, Table 1A, Patient 115-002-002 (Patient 2), Day 1, 20 mg oral daily",127 ng/mL
same,AUC(0-t),"po, 20 mg, Table 1A, Patient 115-002-002 (Patient 2), Day 1, 20 mg oral daily, read-out: AUClast or AUCtau",1300 ng·h/mL
same,Tmax,"po, 20 mg, Table 1A, Patient 115-002-002 (Patient 2), Day 1, 20 mg oral daily, read-out: Tmax",4 h
same,AUC(0-inf),[6],2520 ng·h/mL
same,Cmax,[6],215 ng/mL
same,AUC(0-t),"po, 20 mg, Table 1A, Patient 115-002-002 (Patient 2), Day 15, 20 mg oral daily, read-out: AUClast or AUCtau",2010 ng·h/mL
same,half-life,"po, 20 mg, Table 1A, Patient 115-002-002 (Patient 2), Day 15, 20 mg oral daily, read-out: Half-life (converted)",~10 h
same,Tmax,"po, 20 mg, Table 1A, Patient 115-002-002 (Patient 2), Day 15, 20 mg oral daily, read-out: Tmax",2 h
same,AUC(0-inf),[7],1880 ng·h/mL
same,Cmax,[7],304 ng/mL
same,AUC(0-t),"po, 20 mg, Table 1A, Patient 115-002-004 (Patient 3), Day 1, 20 mg oral daily, read-out: AUClast or AUCtau",1780 ng·h/mL
same,half-life,"po, 20 mg, Table 1A, Patient 115-002-004 (Patient 3), Day 1, 20 mg oral daily, read-out: Half-life (converted)",5.61 h
same,Tmax,"po, 20 mg, Table 1A, Patient 115-002-004 (Patient 3), Day 1, 20 mg oral daily, read-out: Tmax",2 h
same,AUC(0-inf),[8],2150 ng·h/mL
same,Cmax,[8],295 ng/mL
same,AUC(0-t),"po, 20 mg, Table 1A, Patient 115-002-004 (Patient 3), Day 15, 20 mg oral daily, read-out: AUClast or AUCtau",1910 ng·h/mL
